Laboratory results taken from publication PMC4449328 (European neuropsychopharmacology : the journal of the …, 2014).

What was measured:
[1] = molecular target: T1, D3 receptor (Homo sapiens, UniProt P35462); conditions: read-out: Ki±SEM; binding data previously reported; ref Newman et al. (2003); cited from earlier work
[2] = molecular target: D3 dopamine receptor (Homo sapiens, UniProt P35462); assay: β-arrestin recruitment assay; assay type: cell-based
[3] = molecular target: T1, D3 receptor; assay: [3H]methylspiperone saturation binding; conditions: 1 μM sulpiride (Fig. 6)

D3 dopamine receptor, sequence (P35462 whole entry): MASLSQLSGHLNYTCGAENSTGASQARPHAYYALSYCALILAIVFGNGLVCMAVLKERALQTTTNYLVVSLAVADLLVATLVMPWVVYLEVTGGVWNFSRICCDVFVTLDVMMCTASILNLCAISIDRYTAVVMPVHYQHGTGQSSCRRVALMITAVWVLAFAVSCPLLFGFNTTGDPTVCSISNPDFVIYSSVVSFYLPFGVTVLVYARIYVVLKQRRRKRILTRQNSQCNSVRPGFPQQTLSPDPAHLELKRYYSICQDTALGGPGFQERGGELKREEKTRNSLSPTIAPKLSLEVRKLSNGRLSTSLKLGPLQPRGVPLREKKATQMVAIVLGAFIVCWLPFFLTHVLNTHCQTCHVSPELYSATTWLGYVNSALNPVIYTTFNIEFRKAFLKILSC
T1 sequence (P35462 whole entry): as above

Compound	Ki [1] [nM]	Hill slope of Schild plot ([2]; curve-shift of dopamine concentration response (Fig. 7), n=3–5, mean±SEM)	Hill slope of Schild plot ([2]; curve-shift of dopamine concentration response (Fig. 11))	Bmax of [3H]methylspiperone in presence of compound [3]
O=C(NCCCCN1CCN(c2cccc(Cl)c2Cl)CC1)c1ccc(-c2ccccn2)cc1 [CJB 090]	0.6 ± 0.2			
CCN1CCCC1CNC(=O)c1cc(S(N)(=O)=O)ccc1OC (stereo not shown) [sulpiride]		1.04±0.05	1.04±0.05	6,190 fmol/mg
